Results on 2 compounds are retold here after patent US8859250B2, “Crystal structure of glutaminyl cyclase” (Probiodrug AG, priority 2010, dated 2014).

The target in one series is T1, murine QC (mQC) (Mus musculus, UniProt Q9CYK2).
T1 construct: made in house; host or cells: Pichia pastoris (vector pPICZalphaB, secreted)
Briefly: Ki-values of selected inhibitors for murine QC. Type of series: biochemical. The settings on record: murine glutaminyl cyclase.

A short description of the next series: Solubility in water. Type of series: physicochemical.

pKi: −log10 of the molar value.

T1 sequence (Q9CYK2 36-362): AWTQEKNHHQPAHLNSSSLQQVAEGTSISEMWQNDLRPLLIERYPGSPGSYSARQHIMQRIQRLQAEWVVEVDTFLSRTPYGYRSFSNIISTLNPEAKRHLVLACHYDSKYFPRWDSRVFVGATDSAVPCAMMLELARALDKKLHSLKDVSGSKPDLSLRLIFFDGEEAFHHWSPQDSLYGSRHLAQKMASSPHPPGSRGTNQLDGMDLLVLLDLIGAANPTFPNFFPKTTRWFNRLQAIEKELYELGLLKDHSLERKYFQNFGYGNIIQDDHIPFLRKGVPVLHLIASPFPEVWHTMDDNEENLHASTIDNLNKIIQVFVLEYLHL

`COc1ccc(NC(=S)NCCCn2ccnc2)cc1OC` [Inhibitor A, 1-(3-(1H-Imidazol-1-yl)propyl)-3-(3,4-dimethoxyphenyl)thiourea] gave a pKi on murine QC (mQC) of 6.76. Also, in “Solubility in water”, the solubility in water entry is “soluble in water”.

Regarding `Cc1cc(C)c(N/C(=N/C#N)NCCCn2cncc2C)c(C)c1` [Inhibitor C], the pKi at murine QC (mQC) was 7.29.

Broadly, the pKi is the negative decadic logarithm of the Ki, by convention in mol/L. A high value points to a small Ki.
